Measured values: article PMC5651845, “A New Generation of Arachidonic Acid Analogues as Potential Neurological Agent Targeting Cytosolic Phospholipase A2” (Scientific Reports, 2017)

Columns and labels:
[1] = PAMPA with porcine brain lipids (BBB permeation); details: pig, pH 7.4
Method: Thus to explore whether 2i is able to penetrate into the brain, we used PAMPA with porcine brain lipids as the lipid barrier. […] A minimum Pe of […] × 10^−6 cm/s has been cited as the threshold for permeability across the blood brain barrier.
The Parallel Artificial Membrane Permeability Assay (PAMPA) was used to determine the effective permeability (Pe) of 2i. The method reported by Di et al.[53] was followed with modifications. Determinations were carried out on MultiScreen-IP PAMPA assay (donor) plates (MAIPNTR10) and MultiScreen Receiver Plates (MATRNPS50) from Millipore Corporation (USA) with porcine polar brain lipids (Avanti Polar Lipids Inc, Alabaster, AL) as the lipid barrier.
An aliquot (5 µL) of 2% porcine brain lipids in dodecane (ReagentPlus®, Sigma Aldrich, USA) was dispensed into the donor well. A stock solution (5 mM) of 2i prepared in DMSO was diluted with 1x phosphate buffer (PBS, pH 7.4) to give a 50 µM solution. An aliquot (300 µL) of the solution was dispensed into the donor well and an equal volume of buffer (1xPBS with 1% DMSO) was added to the corresponding acceptor well. The donor and acceptor plates were assembled, the unit was placed in a humidified box and gently agitated on a mini shaker at room temperature (25 °C) for 16 h. After this time, aliquots (200 µL) were withdrawn from the donor and acceptor wells, diluted separately to 1 mL with PBS, and quantified at λmax of 290 nm on a Shimadzu UV-1800 Spectrophotometer.
300 µL aliquots of stock solutions (500 µM, 1xPBS, 0.1% DMSO) were dispensed to donor wells as described earlier. Quantification was by UV at λmax of 272 nm (caffeine), 284 nm (carbamazepine), 330 nm (quinidine), 280 nm (dopamine) and 288 nm (propanolol). […] Pe was obtained from (3):3 Pe=−2.303×{VAVD/[(VA+VD)×A×t]}×log{1−[(VA+VD)/(VD.S)]×CA(t)/CD(0)} where VA and VD are the volumes of acceptor (cm^3) and donor (cm^3) wells respectively, A is the area of the surface area of the membrane (0.24 cm^2), t is the permeation time (s). The Pe of each compound was obtained from at least 3 separate experiments using 2 different stock solutions. For each independent determination, triplicates (3 wells) were run for each compound.

[2] = target: T1, sPLA2, human recombinant type V (Homo sapiens, UniProt P39877); test: EnzChek phospholipase A2 fluorogenic assay (selectivity) with sPLA2; assay type: biochemical; details: 10 μM, relative to DMSO control
T1 construct: purchased Cayman Chemical 10009563
T1 sequence (P39877 21-138): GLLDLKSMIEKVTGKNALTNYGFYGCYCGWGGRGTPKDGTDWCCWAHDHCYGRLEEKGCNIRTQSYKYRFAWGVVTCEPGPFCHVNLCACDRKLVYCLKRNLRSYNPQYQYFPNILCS
Method: To further explore their selectivity towards cPLA2, 10 μM of 2g and 2i were evaluated for their inhibition against recombinant sPLA2 using the fluorogenic PLA2 assay (Fig. 3C).
The assay was conducted as described above. Instead of adding cPLA2, it was replaced by sPLA2. 48 μL of 1X phospholipase A2 reaction buffer was added into each well of a 96-wells plate. This was followed by addition of 1 μL of sPLA2, human recombinant type V (10009563, Cayman Chemical) and 1 μL of 1 mM of the respective compound or thioetheramide-PC (62750, Cayman Chemical) dissolved in DMSO. The final concentration of the test compound achieved is 10 μM. The reaction was initiated by adding 50 μL of the substrate solution and incubating at room temperature for 1 h. Fluorescence was measured using a Varioskan plate reader by exciting at 485 nm, while fluorescence emission was detected at 515 nm. Positive control was performed when 1 μL of test compound was replaced by vehicle DMSO. % activity was expressed as the mean value of duplicate wells from four experiments. % activity was calculated by the following formula:2 %activity=fluorescenceoftestedwell−background/fluorescenceofpostivecontrol−background

BV-2 cells = test: MTS cell proliferation assay on BV-2 cells; assay type: cell-based, murine; details: 10 μM, 48 h and 72 h, vs vehicle control
Method: To explore whether the inhibitors are cytotoxic, MTS assay were conducted on BV-2 cells, a murine microglial cell line derived from post-natal mouse cerebella, and HEK293T cells that are derived from human embryonic kidney. Both cell types were treated with 10 μM of 1a, 2g and 2i for 48 h and 72 h (Fig. 3A,B). Dimethyl sulfoxide (DMSO) vehicle control was also included as the compounds were dissolved in DMSO.
Cells were plated on a 96-wells plate and grown for 24 h to a density of 8000 cells per well for both HEK293T and BV-2 cells. Cells were cultured at 37 °C under a 5% CO2 environment in 100 μL of culture medium. Thereafter, the compound of interest dissolved in culture medium at a concentration of 10 μM was replaced into each well. DMSO was added as vehicle in the control group. 3 biological replicates were performed. The plates were then incubated at 37 °C with 5% CO2 for 48 h and 72 h. At each individual time point, 20 μL of CellTiter 96® AQueous One Solution (MTS reagent) was added into each well and re-incubated at 37 °C with 5% CO2 without light for 3 h. Colorimetric readings were taken using a Varioskan plate reader at 490 nm and analyzed. Three independent biological repeats with four technical replicates were performed.

CCCCC/C=C\C/C=C\C/C=C\C/C=C\CCCCC(=O)Nc1cccc(C(=O)O)c1 [2i]
Papp at 16 h, 50 µM [1]: 12.3 ± 1.46 ×10⁻⁶ cm/s | sPLA2 activity [2]: did not provide a significant change in sPLA2 activity | cytotoxicity (MTS) on BV-2 cells (BV-2 cells): no significant toxic effects
